Laboratory results published in patent US5045566A, “Novel imidate insecticides” (ICI Americas Inc., priority 1989, dated 1991).

Key:
Assay type in all cases: in vivo
[1] = test system: Cabbage Looper [Trichoplusia ni (Hubner)]; experiment: Cabbage looper leaf dip (CL), 3-5 days; details: percent in solution, second-instar larvae
Protocol: (§1) The compounds in Tables 1 and 2 above were tested for insecticidal activity using the following testing procedures. LC50 values, based on the results of these tests and calculated according to dosage-mortality curves, are expressed in Table 3.
Cabbage Looper [Trichoplusia ni (Hubner)]:
Test compounds were diluted in a 50-50 acetone-water solution. Cotyledons of hyzini squash (Calabacita abobrinha), approximately 1×1.5 inches, were immersed in the test solutions for 2-3 seconds and placed on a wire screen to dry. The dried leaves were placed in petri dishes containing a moistened piece of filter paper and infested with 5 second-instar cabbage looper larvae. The dishes were placed in a high humidity chamber. Mortality of the larvae was recorded 3-5 days later. Test concentrations ranged from 0.1% downward. The LC-50 value is expressed below in Table 3 under the heading "CL" in terms of percent of the test compound in solution.

[2] = test system: Tobacco Budworm [Heliothis virescens (Fabricius)] eggs; experiment: Tobacco budworm eggs (TBW-E); details: percent in solution; 2-day old eggs
Protocol: as §1
Tobacco Budworm [Heliothis virescens (Fabricius)]:
(b). Eggs: Paper towel patches of 2-day old eggs of the tobacco budworm were dipped in acetone solutions of the test compound and placed in petri dishes containing a portion of larval rearing medium. Treated eggs were maintained at 78° F. and mortality was recorded after all control eggs had hatched and the young larvae were feeding on the media. Test concentrations ranged from 0.1% downward. The LC-50 value is expressed below in Table 3 under the heading "TBW-E" in terms of percent of the test compound in the solution.

[3] = test system: Housefly [Musca domestica]; experiment: Housefly contact mortality in dishes (HF), 48 hours; details: μg of test compound per 25 female flies
Protocol: as §1
Housefly [Musca domestica]:
Test compounds were diluted in acetone and aliquots pipetted onto the bottom of aluminum dishes. To ensure even spreading of the chemical on the bottom of the dishes, 1 ml of acetone containing 0.01% peanut oil was also added to each dish. After all solvents had evaporated, the dishes were placed in circular cardboard cages containing 25 female houseflies, 1-2 days old. The cages were covered on the bottom with cellophane and on the top with tulle netting, and each contained a sugar-water saturated cotton plug for maintenance of the flies. Mortality was recorded after 48 hours. Test levels ranged from 100 μg/25 female houseflies downward. The LC-50 value is expressed below in Table 3 under the heading "HF", in terms of μg of the test compound per 25 female flies.

| SMILES | LC50 CL [1] | LC50 TBW E (eggs) [2] | LC50 HF [3] |
| --- | --- | --- | --- |
| CC(C)(F)C(=Nc1ccc(F)c(F)c1)OCc1cccc(Oc2ccc(F)cc2)c1 [Compound 318] | 0.0007% | > 0.1% | 19 µg |
| CC(C)C(=Nc1ccc(F)cc1)OCc1cccc(Oc2ccc(F)cc2)c1 [Compound 197] | 0.0004% | 0.05% | > 100 µg |
| CC(C)C(=Nc1cccc(C(F)(F)F)c1)OCc1cccc(Oc2ccc(Br)cc2)n1 [Compound 493] | 0.0008% | 0.05% | 36 µg |
| CC(C)C(=Nc1cccc(C(F)(F)F)c1)OCc1cccc(Oc2cccc(F)c2)c1 [Compound 192] | 0.0012% | 0.07% | 25 µg |
| CC(C)C(=Nc1ccc(C2CCCCC2)cc1)OCc1cccc(Oc2ccc(F)cc2)c1 [Compound 280] | 0.024% | > 0.1% | > 100 µg |
| CC(C)C(=Nc1ccc(C(C)(C)C)cc1)OCc1cccc(Oc2ccccc2)n1 [Compound 496] | 0.006% | > 0.1% | > 100 µg |
| Cc1ccc(Oc2cccc(COC(=Nc3ccc(F)c(Cl)c3)C(C)C)n2)cc1 [Compound 494] | 0.003% | > 0.1% | 34 µg |
| CC(C)C(=Nc1cccc(C#N)c1)OCc1cccc(Oc2ccccc2)c1 [Compound 126] | 0.08% | > 0.1% | > 100 µg |
| CCC(CC)C(=Nc1ccc(Cl)cc1)OCc1cccc(Oc2ccc(F)cc2)c1 [Compound 290] | 0.017% | > 0.1% | > 100 µg |
| CCCCC(=Nc1ccc(F)c(Cl)c1)OCc1cccc(Oc2ccccc2)c1 [Compound 121] | 0.1% | > 0.1% | > 100 µg |
| CC(C)C(=Nc1cccc(C(F)(F)F)c1)OCc1ccc(OCc2ccccc2)cc1 [Compound 476] | 0.015% | > 0.1% | > 100 µg |
| CC(=O)c1cccc(N=C(OCc2cccc(Oc3ccccc3)c2)C(C)C)c1 [Compound 170] | 0.1% | > 0.1% | 37 µg |
| CC(C)C(=Nc1ccc2c(c1)OCO2)OCc1ccc(F)c(Oc2ccc(Cl)cc2)c1 [Compound 313] | 0.00025% | 0.013% | > 100 µg |
| CC(C)C(=Nc1ccc2c(c1)OCO2)OCc1cccc(Oc2ccccc2F)c1 [Compound 190] | 0.0004% | 0.023% | 7.5 µg |
| CCCC(=Nc1ccc(Cl)c(Cl)c1)OCc1cccc(Oc2ccccc2)c1 [Compound 38] | 0.006% | 0.05% | 33 µg |
| CCC(CC)C(=Nc1cccc(C(F)(F)F)c1)OCc1cccc(Oc2ccc(F)cc2)c1 [Compound 291] | 0.004% | > 0.1% | > 100 µg |
| CC(C)(F)C(=Nc1cccc(C(F)(F)F)c1)OCc1cccc(Oc2ccc(F)cc2)c1 [Compound 319] | 0.0007% | > 0.1% | 44 µg |
| CCCC(=Nc1ccc(OC)cc1)OCc1cccc(Oc2ccccc2)c1 [Compound 184] | 0.024% | > 0.1% | 61 µg |
| CCCC(=Nc1ccc(F)c(Cl)c1)OCc1cccc(Oc2ccccc2)c1 [Compound 123] | 0.012% | > 0.1% | > 100 µg |
| CCC(C)C(=Nc1ccc(Cl)c(Cl)c1)OCc1cccc(Oc2ccccc2)c1 (stereo not drawn) [Compound 39] | 0.0023% | > 0.1% | > 100 µg |

| SMILES | LC50 CL [1] | LC50 TBW E (eggs) [2] | LC50 HF [3] |
| --- | --- | --- | --- |
| CC(C)C(=Nc1ccc2c(c1)OCO2)OCc1cccc(Oc2ccccc2F)c1 [Compound 183] | 0.00075% | 0.075% | 10 µg |
| COc1ccc(N=C(OCc2cccc(Oc3ccc(F)cc3)c2)C(C)C)cc1Cl [Compound 110] | 0.007% | 0.04% | 26 µg |
| CC(C)(F)C(=Nc1ccc(F)c(Cl)c1)OCc1cccc(Oc2ccc(F)cc2)c1 [Compound 309] | 0.00017% | 0.07% | > 100 µg |
| CC(C)C(=Nc1ccc(C(C)(C)C)c(Cl)c1)OCc1cccc(Oc2ccc(F)cc2)c1 [Compound 308] | 0.009% | > 0.1% | > 100 µg |
| CC(C)C(=Nc1ccc(F)c(Cl)c1)OCc1ccc(F)c(Br)c1 [Compound 473] | 0.025% | > 0.1% | > 100 µg |
| CC(C)C(=Nc1ccc(F)c(F)c1)OCc1coc(Cc2ccccc2)c1 [Compound 485] | > 0.1% | > 0.1% | 24 µg |
| CC(C)C(=Nc1ccc2c(c1)OC(C)(C)O2)OCc1cccc(Oc2ccccc2)c1 [Compound 182] | 0.0006% | 0.04% | 28 µg |
| CC(Br)C(=Nc1ccc(F)c(Cl)c1)OCc1cccc(Oc2ccccc2)c1 (stereo not drawn) [Compound 118] | 0.0013% | > 0.1% | 18 µg |
| CCC(C)C(=Nc1ccc2c(c1)OCO2)OCc1cccc(Oc2ccccc2)c1 (stereo not drawn) [Compound 185] | 0.0006% | 0.075% | 13 µg |
| CC(C)c1ccc(N=C(OCc2cccc(Oc3ccc(F)cc3)c2)C(C)(C)C)cc1 [Compound 322] | 0.007% | > 0.1% | > 100 µg |
| CC(C)C(=Nc1ccc(Cl)c(Cl)c1)OCc1cccc(Oc2cccc(Cl)c2)c1 [Compound 207] | 0.008% | > 0.1% | > 100 µg |
| COc1cccc(N=C(OCc2cccc(Oc3ccc(F)cc3)c2)C(C)C)c1 [Compound 201] | 0.004% | > 0.1% | 15 µg |
| CCC(CC)C(=Nc1ccc(C(C)C)cc1)OCc1cccc(Oc2ccccc2)c1 [Compound 321] | 0.05% | > 0.1% | > 100 µg |
| CCC(=Nc1ccc(C(C)C)cc1)OCc1cccc(Oc2ccc(F)cc2)c1 [Compound 320] | 0.0075% | > 0.1% | > 100 µg |
| Cc1ccc(Oc2cccc(COC(=Nc3cccc(C(F)(F)F)c3)C(C)C)n2)cc1 [Compound 495] | 0.012% | 0.1% | > 100 µg |
| CCC(=Nc1ccc(Cl)c(Cl)c1)OCc1cccc(Oc2ccccc2)c1 [Compound 36] | 0.024% | > 0.1% | 20 µg |
| CC(C)C(=Nc1ccc(Cl)cc1)OCc1coc(Cc2ccccc2)c1 [Compound 484] | 0.003% | > 0.1% | 16 µg |
| CC(C)C(=Nc1cccc(Oc2ccccn2)c1)OCc1cccc(Oc2ccccc2)c1 [Compound 114] | < 0.1% |  | 92 µg |
| CC(C)C(=Nc1ccc(F)c(Cl)c1)OC(F)c1cccc(Oc2ccc(F)cc2)c1 (stereo not drawn) [Compound 502] |  |  | 80 µg |
